Assay results: patent publication US11149031B2, “Substituted N-(3-fluoropropyl)-pyrrolidine compounds, processes for their preparation and therapeutic uses thereof” (SANOFI, priority 2016, dated 2021)
Like-named read-outs stand apart in the source and are kept apart here.

Legend:
[1] = target: His6-ERα298-554 WT (ERα ligand-binding domain) (Homo sapiens (Human), UniProt P03372); assay: Test A: biochemical antagonist activity, LanthaScreen TR-FRET ERα coactivator assay, WT; settings: read-out: Antagonism WT IC50
His6-ERα298-554 WT (ERα ligand-binding domain), sequence (P03372 298-554): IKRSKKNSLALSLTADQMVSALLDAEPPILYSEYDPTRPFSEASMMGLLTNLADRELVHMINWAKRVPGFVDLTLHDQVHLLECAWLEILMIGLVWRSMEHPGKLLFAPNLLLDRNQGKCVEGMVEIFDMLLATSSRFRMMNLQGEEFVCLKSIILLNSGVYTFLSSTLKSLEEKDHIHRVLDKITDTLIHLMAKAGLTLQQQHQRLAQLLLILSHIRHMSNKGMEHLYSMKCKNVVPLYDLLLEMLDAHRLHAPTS
In short: (§1)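 His6-ERα LBD (0.5 nM) with 0.5 nM Tb-anti-His6 antibody, 250 nM PGC1a peptide and 3 nM (or 10 nM) estradiol in 100 mM potassium phosphate pH 7.4 with 5 mM DTT, incubated overnight at room temperature with compound.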

[2] = target: His6-ERα298-554 D538G mutant (ERα ligand-binding domain) (Homo sapiens (Human), UniProt P03372, D538G); assay: Test A: biochemical antagonist activity, LanthaScreen TR-FRET ERα coactivator assay, D538G mutant; settings: read-out: Antagonism D538G IC50
His6-ERα298-554 D538G mutant (ERα ligand-binding domain), sequence (P03372 298-554 D538G): as the sequence (P03372 298-554) above, with D241G counted along it
In short: as §1

[3] = target: His6-ERα298-554 Y537S mutant (ERα ligand-binding domain) (Homo sapiens (Human), UniProt P03372, Y537S); assay: Test A: biochemical antagonist activity, LanthaScreen TR-FRET ERα coactivator assay, Y537S mutant; settings: read-out: Antagonism Y537S IC50
His6-ERα298-554 Y537S mutant (ERα ligand-binding domain), sequence (P03372 298-554 Y537S): as the sequence (P03372 298-554) above, with Y240S counted along it
In short: as §1

[4] = test system: MCF7 cells (breast tumor cells) WT; assay: Test B: cell proliferation/viability assay (CellTiter-Glo) on MCF7 WT; format: cell-based; settings: Homo sapiens, MCF7, 168 h, 7 days of compound exposure
In short: (§2)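 Seven-day compound exposure, 9 concentrations from 3 to 0.000001 μM, in phenol red-free medium with 5% charcoal-stripped serum. ER Tyr537Ser and Asp538Gly lines derive from transfected MCF7 selected to grow without estradiol. Viability from CellTiter-Glo luminescence, background-corrected, as percent of untreated.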

[5] = test system: MCF7 cells expressing mutant estrogen receptor Tyr 537 Ser; assay: Test B: cell proliferation/viability assay (CellTiter-Glo) on MCF7 Tyr 537 Ser mutant; format: cell-based; settings: Homo sapiens, MCF7, 168 h, MCF7 cells expressing ER Tyr 537 Ser mutant, 7 days of compound exposure, read-out: proliferation MCF7 Y537S IC50
In short: as §2

[6] = test system: MCF7 cells expressing mutant estrogen receptor Asp 538 Gly; assay: Test B: cell proliferation/viability assay (CellTiter-Glo) on MCF7 Asp 538 Gly mutant; format: cell-based; settings: Homo sapiens, MCF7, 168 h, MCF7 cells expressing ER Asp 538 Gly mutant, 7 days of compound exposure, read-out: proliferation MCF7 D538G IC50
In short: as §2

ERα in MCF7 cells = ERα in MCF7 cells (Homo sapiens (Human), UniProt P03372); assay: Test C: estrogen receptor degradation activity, ERα in cell western assay in MCF7 cells; format: cell-based; settings: for DC50: 4 hours post compound addition, ERα in cell western, read-out: Degradation IC50; for % Degradation at 3 μM: 4 hours, relative to fulvestrant
ERα in MCF7 cells, sequence (P03372 whole entry): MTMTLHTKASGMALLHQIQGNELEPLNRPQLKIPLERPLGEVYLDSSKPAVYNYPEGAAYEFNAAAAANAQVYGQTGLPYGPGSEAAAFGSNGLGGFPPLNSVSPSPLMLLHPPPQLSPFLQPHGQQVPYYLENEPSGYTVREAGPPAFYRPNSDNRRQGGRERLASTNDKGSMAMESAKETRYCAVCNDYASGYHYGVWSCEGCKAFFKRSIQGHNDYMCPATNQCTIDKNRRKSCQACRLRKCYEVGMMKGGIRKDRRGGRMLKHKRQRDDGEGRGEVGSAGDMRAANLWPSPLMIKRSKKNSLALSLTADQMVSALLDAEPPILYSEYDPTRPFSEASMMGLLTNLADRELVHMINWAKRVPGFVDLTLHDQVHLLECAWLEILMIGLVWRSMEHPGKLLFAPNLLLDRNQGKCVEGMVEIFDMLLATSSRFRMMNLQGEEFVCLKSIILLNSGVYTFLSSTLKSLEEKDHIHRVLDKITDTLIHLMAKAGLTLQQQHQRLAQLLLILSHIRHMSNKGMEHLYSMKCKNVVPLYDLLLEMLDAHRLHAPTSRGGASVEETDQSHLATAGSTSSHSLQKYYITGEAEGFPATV
In short: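 In-cell western: ERα level (green) against DNA stain Syto-64 (red) by integrated intensity. MCF7 cells in hormone-depleted medium exposed 4 h to compound at 3-0.000018 μM final (1:5 series); fulvestrant 0.1 μM as positive control.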

[7] = asterisk (*): protocol using 10 nM estradiol

| Compound | IC50 ([1]; protocol with 3 nM estradiol) | IC50 ([2]; protocol with 3 nM estradiol) | IC50 ([3]; protocol with 3 nM estradiol) | IC50 [4] | IC50 [5] | IC50 [6] | DC50 (ERα in MCF7 cells) | % Degradation at 3 μM (ERα in MCF7 cells) | IC50 [1, 7] | IC50 [2, 7] | IC50 [3, 7] |
| --- | --- | --- | --- | --- | --- | --- | --- | --- | --- | --- | --- |
| CCOc1ccc(C2=C(c3ccc(O[C@H]4CCN(CCCF)C4)cc3)c3ccc(O)cc3OCC2)c(C)c1 [Example 119, 4-(4-ethoxy-2-methyl-phenyl)-5-[4-[(3S)-1-(3-fluoropropyl)pyrrolidin-3-yl]oxyphenyl]-2,3-dihydro-1-benzoxepin-8-ol] | 2 nM | 10 nM | 6 nM | 0.6 nM | 5 nM | 0.5 nM | 1 nM | 91% | – | – | – |
| C[C@H]1Cc2cc(C3=C(c4ccc(O[C@H]5CCN(CCCF)C5)cc4)c4ccc(O)cc4SCC3)ccc2O1 [Example 204, 5-[4-[(3S)-1-(3-fluoropropyl)pyrrolidin-3-yl]oxyphenyl]-4-[(2S)-2-methyl-2,3-dihydrobenzofuran-5-yl]-2,3-dihydro-1-benzothiepin-8-ol] | – | – | – | 0.4 nM | 5 nM | 0.8 nM | 0.6 nM | 88% | 24 nM | 24 nM | 15 nM |
| COc1ccc(C2=C(c3ccc(O[C@H]4CCN(CCCF)C4)cc3)c3ccc(O)cc3OCC2)c(F)c1 [Example 121, 4-(2-fluoro-4-methoxy-phenyl)-5-[4-[(3S)-1-(3-fluoropropyl)pyrrolidin-3-yl]oxyphenyl]-2,3-dihydro-1-benzoxepin-8-ol] | 2 nM | 27 nM | 13 nM | 0.3 nM | 3 nM | 1 nM | 0.2 nM | 90% | – | – | – |
| Oc1ccc2c(c1Cl)OCCC(c1cccc3[nH]ccc13)=C2c1ccc(O[C@H]2CCN(CCCF)C2)cc1 [Example 124, 9-chloro-5-[4-[(3S)-1-(3-fluoropropyl)pyrrolidin-3-yl]oxyphenyl]-4-(1H-indol-4-yl)-2,3-dihydro-1-benzoxepin-8-ol] | 22 nM | 849 nM | 1240 nM | 8 nM | 165 nM | 33 nM | 5 nM | 76% | – | – | – |
| Cc1ccc(C2=C(c3ccc(O[C@H]4CCN(CCCF)C4)cc3)c3ccc(O)cc3SC2)c(Cl)n1 [Example 56, 3-(2-chloro-6-methyl-3-pyridyl)-4-[4-[(3S)-1-(3-fluoropropyl)pyrrolidin-3-yl]oxyphenyl]-2H-thiochromen-7-ol] | – | – | – | 0.6 nM | 14 nM | 0.7 nM | 0.2 nM | 86% | 37 nM | 721 nM | 358 nM |
| COc1ccc(C2=C(c3ccc(O[C@H]4CCN(CCCF)C4)cc3)c3ccc(O)cc3SC2)cc1F [Example 23, 3-(3-fluoro-4-methoxy-phenyl)-4-[4-[(3S)-1-(3-fluoropropyl)pyrrolidin-3-yl]oxyphenyl]-2H-thiochromen-7-ol] | – | – | – | 7 nM | > 999 nM | 14 nM | 0.3 nM | 93% | 50 nM | 803 nM | 678 nM |
| CCOc1ccc(C2=C(c3ccc(O[C@H]4CCN(CCCF)C4)cc3)c3ccc(O)cc3SC2)c(Cl)c1 [Example 36, 3-(2-chloro-4-ethoxy-phenyl)-4-[4-[(3S)-1-(3-fluoropropyl)pyrrolidin-3-yl]oxyphenyl]-2H-thiochromen-7-ol] | – | – | – | 0.5 nM | 3 nM | 0.5 nM | 0.2 nM | 83% | 11 nM | 257 nM | 154 nM |
| CC1(C)Cc2cc(C3=C(c4ccc(O[C@H]5CCN(CCCF)C5)nc4)c4ccc(O)cc4CCC3)ccc2N1 [Example 242, 6-(2,2-dimethylindolin-5-yl)-5-[6-[(3S)-1-(3-fluoropropyl)pyrrolidin-3-yl]oxy-3-pyridyl]-8,9-dihydro-7H-benzo[7]annulen-2-ol] | – | – | – | 0.7 nM | 11 nM | 2 nM | 0.8 nM | 83% | 1 nM | 9 nM | 7 nM |
| Oc1ccc2c(c1)SCCC(c1ccc(OC(F)(F)F)cc1F)=C2c1ccc(O[C@H]2CCN(CCCF)C2)cc1 [Example 212, 5-[4-[(3S)-1-(3-fluoropropyl)pyrrolidin-3-yl]oxyphenyl]-4-[2-fluoro-4-(trifluoromethoxy)phenyl]-2,3-dihydro-1-benzothiepin-8-ol] | – | – | – | 0.4 nM | 3 nM | 0.5 nM | 2 nM | 90% | 34 nM | 800 nM | 412 nM |
| Cc1ccc(C2=C(c3ccc(O[C@H]4CCN(CCCF)C4)cc3)c3ccc(C(=O)O)cc3SCC2)c(F)c1 [Example 210, 4-(2-fluoro-4-methyl-phenyl)-5-[4-[(3S)-1-(3-fluoropropyl)pyrrolidin-3-yl]oxyphenyl]-2,3-dihydro-1-benzothiepine-8-carboxylic acid] | – | – | – | 0.8 nM | 15 nM | 1 nM | 2 nM | 89% | 103 nM | 2220 nM | 1330 nM |
| Cc1cc(C2=C(c3ccc(O[C@H]4CCN(CCCF)C4)nc3)c3ccc(O)c(F)c3CCC2)ccc1Cl [Example 250, 6-(4-chloro-3-methyl-phenyl)-1-fluoro-5-[6-[(3S)-1-(3-fluoropropyl)pyrrolidin-3-yl]oxy-3-pyridyl]-8,9-dihydro-7H-benzo[7]annulen-2-ol] | – | – | – | 0.3 nM | 4 nM | 0.3 nM | 0.5 nM | 87% | 7 nM | 113 nM | 70 nM |
| Cc1cc(C2=C(c3ccc(O[C@H]4CCN(CCCF)C4)cc3)c3ccc(O)cc3SCC2)ccc1Cl [Example 162, 4-(4-chloro-3-methyl-phenyl)-5-[4-[(3S)-1-(3-fluoropropyl)pyrrolidin-3-yl]oxyphenyl]-2,3-dihydro-1-benzothiepin-8-ol] | 4 nM | 24 nM | 19 nM | 0.4 nM | 5 nM | 1 nM | 0.8 nM | 90% | – | – | – |
| Oc1ccc(C2=C(c3ccc(O[C@H]4CCN(CCCF)C4)cc3)c3ccc(O)cc3OC2)cc1 [Example 83, 4-[4-[(3S)-1-(3-fluoropropyl)pyrrolidin-3-yl]oxyphenyl]-3-(4-hydroxyphenyl)-2H-chromen-7-ol] | 81 nM | 1320 nM | 1160 nM | 2 nM | 18 nM | 13 nM | 2 nM | 75% | – | – | – |
| CCOc1ccc(C2=C(c3ccc(O[C@H]4CCN(CCCF)C4)nc3)c3ccc(O)c(F)c3CCC2)c(F)n1 [Example 252, 6-(6-ethoxy-2-fluoro-3-pyridyl)-1-fluoro-5-[6-[(3S)-1-(3-fluoropropyl)pyrrolidin-3-yl]oxy-3-pyridyl]-8,9-dihydro-7H-benzo[7]annulen-2-ol] | – | – | – | 0.6 nM | 9 nM | 0.4 nM | 0.2 nM | 86% | 0.7 nM | 8 nM | 9 nM |
| Oc1ccc2c(c1)SCC(c1ccc(SC(F)(F)F)cc1)=C2c1ccc(O[C@H]2CCN(CCCF)C2)cc1 [Example 66, 4-[4-[(3S)-1-(3-fluoropropyl)pyrrolidin-3-yl]oxyphenyl]-3-[4-(trifluoromethylsulfanyl)phenyl]-2H-thiochromen-7-ol] | 59 nM | 1800 nM | 362 nM | 2 nM | 8 nM | 2 nM | 0.2 nM | 84% | – | – | – |
| CCOc1cc(C2=C(c3ccc(O[C@H]4CCN(CCCF)C4)cc3)c3ccc(O)cc3SCC2)ccc1F [Example 195, 4-(3-ethoxy-4-fluoro-phenyl)-5-[4-[(3S)-1-(3-fluoropropyl)pyrrolidin-3-yl]oxyphenyl]-2,3-dihydro-1-benzothiepin-8-ol] | – | – | – | 0.3 nM | 3 nM | 0.7 nM | 0.4 nM | 97% | 14 nM | 335 nM | 170 nM |
